# Laboratory results: patent US5104852A, “Method for the inhibition of the proliferation of cancer cells in a tumor sensitive to treatment with a selenodithiol by the injection into the tumor of a selenodithiol such as selenodiglutathione” (The Ohio State University, priority 1991, dated 1992)
# What was measured:
# [1] = tested on: DMBA (7,12-dimethylbenz(a)anthracene) induced tumors; experiment: DMBA-induced tumors in rats, injection of agents (Table 1, FIG. 3); assay type: in vivo
# From the text: The Table contrasts the results obtained by the desired dosage with the results obtained from four other groups of ten rats; the rats in each group being inoculated with cancer immunotoxins in differing dosages of both GSSeSG, retinol (HPR) and mixtures of each, as well as a control sample of […] which were not administered with cancer treating agents. All one hundred rats were inoculated with DMBA (7,12-dimethylbenz(a)anthracene) so as to induce cancer cell formation, which was then allowed to form tumors over a period of two months prior to testing. […] Thus, Table 1 clearly illustrates both the effectiveness of GSSeSG when utilized in the desired range of proportions and also the fact that even relatively small variations in excess of the crisis zone in its administration will cause severe damage to the host subject, while the proper range of dosages is substantially non-toxic to the treated host.
# [2] = tested on: DMBA-induced mammary tumorigenesis; settings: cited from earlier work
# [3] = tested on: DU-145 Human Prostate Carcinoma Cells; settings: in vitro; cited from earlier work
# EF-2 = EF-2 (Rattus norvegicus, UniProt P05197); settings: in vitro amino acid incorporation; cited from earlier work
# [4] = tested on: Human Breast Cancer Cells; settings: parenteral administration, mice; cited from earlier work
# rat mammary tumor = experiment: Direct injection into rat mammary tumor (FIG. 12, FIG. 13); assay type: in vivo
# Procedure: The tumor was induced in each rat by the administration of 7,12-dimethylbenz(a)anthracene and allowed to proliferate to the predetermined sized range of 1.5 to 2.5 centimeters in diameter. The selenodiglutathione was injected at a level of 700 micrograms directly into the central region of the tumor mass fifteen times over the course of thirty days.
# FIG. 13 illustrates a table comparing the volume changes of three rat mammary cancer tumors injected over time. The curve marked "C" represents the volume increase in a control tumor injected with eluate from the column but with no selenodithiol. Curves "L" and "H" represent cancer tumors injected according to different treatment schedules of selenodiglutathione. The "L" tumor received a dose of selenodiglutathione of 1.46cc of 7×10^-3 M every forty eight hours for twenty eight days while the "H" tumor received a dose of selenodiglutathione of 2.8cc of 7×10^-3 M every ninety six hours for twenty eight days. […] The control tumor, C, continued to increase in volume dramatically.
# [5] = biological target: T1, elongation factor 2 (EF-2) (Rattus norvegicus, UniProt P05197); settings: cell-free system derived from rats; cited from earlier work
# T1 construct: in a cell-free system derived solely from rats
# [6] = tested on: peripheral blood lymphocytes; experiment: Sister Chromatid Exchange (mutagenicity); assay type: cell-based, human; settings: FIG. 2, compared with selenite and selenomethionine
# From the text: FIG. 2 describes the effect that GSSeSG has with respect to the mutagenicity of three selenium containing, cancer treating agents as a function of their respective concentrations. More particularly, the preferred selenodithiol, GSSeSG is contrasted with two other selenium containing compounds, selenite and selenomethionine in the treatment of peripheral blood lymphocytes, i.e., normal human cells taken from different sections of the body. […] As one in the art is aware, in the technique known as Sister Chromatid Exchange (SCE) the particular nucleotide components which comprise the DNA genetic code cross over to form cell mutations which lead to the birth and growth of rapidly dividing neoplastic cells.
# human tumor cell lines = experiment: Cell culture assay (microculture tetrazolium/MTT assay); assay type: cell-based
# From the text: The purpose of the cell culture assay is a method for measuring at what concentration of the cancer treating agent will inhibit neoplastic cell division or protein synthesis, and thus cause the death of the neoplastic cells. The particular assay technique is a modification of that described by Mosmann, Jour. of Immunol. Meth., 65, 1983, pp. 55-63. The cell lines used for the in vitro assay are: […]
# The plating density of each cell type used in the assay is set forth below: […]
# The procedure followed involved adding for each cell type 200 microliters of the cell suspension at the concentration determined above, to each well of a 96-well plate. The plates were allowed to incubate for twenty four hours at 37° C. and humidified in the presence of a 5% CO2 atmosphere, whereupon 20 microliters of GSSeSG concentrations ranging from 10^-8 M to 10^-4 M were added to the wells located on the plate. A variety of concentrations of cycloheximide and adriamycin were utilized as a control. The resulting plates were incubated for six days at 37° C., humidified in a 5% CO2 atmosphere and on the final day of the assay, 20 μl were added to each well of [MTT 3-(4,5-dimethylthiazol-2-yl)-2,5-diphenyl tetrazolium bromide], obtained from Sigma Cat #M2128. The MTT is prepared by combining 5mg/ml of a phosphate buffered saline (PBS) solution. […] Upon completion, the optical density of each well was read on an elisa plate reader set at 570nm (test sample) and 630nm (for reference).
# FIGS. 4 through 11 provide comparisons of the effects at increasing concentrations of adriamycin and GSSeSG as measured by variations in optical density of various cell solutions. […] Variations in optical density, measured by a spectrophotometer, are indicative of the level of cellular activity. […]
# [7] = tested on: Malignant Mouse Lymphoid Cells; settings: intraperitoneal injections, mice previously inoculated with tumor cells, versus untreated control; cited from earlier work
# [8] = tested on: secondary superficial tumors; experiment: Injection at site distant from the tumor; assay type: in vivo, rats; settings: effective dosages injected at site distant from the tumor
# Procedure: It has further been discovered that rats which are injected with effective dosages of GSSeSG at site distant from the tumor will still kill the cancer tumors.
# [9] = retinol alone or GSSeSG mixed with retinol, groups of ten rats
# [10] = 1 μg per gram of rat body weight
smiles,measurement,setting,value
"CC1=C(/C=C/C(C)=C/C=C/C(C)=C/CO)C(C)(C)CCC1 [retinol, reference compound]",damage to the rats (bodyweight column),[1]; [9],severe damage to the rats
same,effect on cancer,[1]; [9],effective in arresting the cancer
O=[Se](O)O [sodium selenite],"tumorigenesis, high fat fed animals",[2]; high fat fed rats,did not respond as favorably
same,"tumorigenesis, low fat diets",[2]; rats on low fat diets,decrease tumorigenesis
same,growth of human prostate carcinoma cells,[3],inhibits the growth
same,concentration that can inhibit EF-2,EF-2,11 µM
same,development of cancerous tumors,[4],completely inhibits
"N[C@@H](CCC(=O)N[C@@H](CS[Se]SC[C@H](NC(=O)CC[C@H](N)C(=O)O)C(=O)NCC(=O)O)C(=O)NCC(=O)O)C(=O)O [GSSeSG, selenodiglutathione]","tumor volume change, ""L"" tumor","rat mammary tumor; 1.46cc of 7×10^-3 M every forty eight hours for twenty eight days, FIG. 13",stopped growing
same,"tumor volume change, ""H"" tumor","rat mammary tumor; 2.8cc of 7×10^-3 M every ninety six hours for twenty eight days, FIG. 13",decreased in volume to a level significantly below the initial volume
same,detrimental effect to the animal,"rat mammary tumor; 700 micrograms into central region of tumor, fifteen times over thirty days",without any detrimental effect
same,tumor size,"rat mammary tumor; 700 micrograms into central region of tumor, fifteen times over thirty days, FIG. 12",decreased dramatically
same,effectiveness in inhibiting protein synthesis versus sodium selenite or oxidized glutathione,[5],substantially more effective
same,number of Sister Chromatid Exchanges (inducible mutation),[6],low number
same,concentration up to which neoplastic cell division increases,human tumor cell lines; FIG. 1,up to 10^-6 M
same,concentration at which neoplastic cells survive (purple solution obtained),"human tumor cell lines; MTT, six days incubation",less than 10^-6 M
same,concentration inhibiting neoplastic cell division or protein synthesis (purple solution not obtained),"human tumor cell lines; MTT, six days incubation",at least 10^-5 M
same,life span of the animals,[7],increased the life span
same,tumor growth,[7],inhibited the tumor growth
same,effect on cancer cells,[1]; [10],substantial elimination of the cancer cells
same,harm to the rats as indicated by bodyweight,[1]; [10],substantially no harm to the rats
same,mortality of rats,"[1]; 2 μg of GSSeSG per gram of bodyweight, ten rats, seventy nine days",all but one of these specimens are dead
same,effect on tumors distant from the point of injection,[8],disappearance of secondary superficial tumors
